This note sets out measurements from patent US9938322B2, “β-hairpin peptidomimetics” (priority 2013, dated 2018).

Structures are written as SMILES. Where a SMILES comes first, the peptide text is derived from it. [ ]: non-standard residue; d: D form. Cha = N[C@@H](CC1CCCCC1)C(=O)O; Chg = N[C@H](C(=O)O)C1CCCCC1; Tle = CC(C)(C)[C@H](N)C(=O)O; dDab = NCC[C@@H](N)C(=O)O; Orn = NCCC[C@H](N)C(=O)O; Dab = NCC[C@H](N)C(=O)O; Nva = CCC[C@H](N)C(=O)O; Abu = CC[C@H](N)C(=O)O

The data set concerns human red blood cells (hRBC). In words: Hemolysis of human red blood cells. Conditions: red cells of human, 1 h, 100. Type of data set: cell-based. Put shortly: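 Washed fresh human erythrocytes (20% v/v, about 0.9×10^9 cells/ml final) incubated with peptide at 100 μg/ml for 1 h at 37° C with shaking. Supernatant OD540 read; hemolysis expressed relative to 2.5% Triton X-100 (100%) and PBS with 0.001% acetic acid (0%).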
Consider `CC(C)C[C@@H]1NC(=O)[C@@H]2CCCN2C(=O)[C@H]2CCCN2C(=O)[C@H]([C@@H](C)O)NC(=O)[C@H](CO)NC(=O)[C@H](C(C)(C)C)NC(=O)[C@H](CCN)NC(=O)[C@H](Cc2c[nH]c3ccccc23)NC(=O)[C@H](CCN)NC(=O)[C@@H](CCN)NC(=O)[C@H](CCN)NC(=O)[C@H](CCN)NC(=O)[C@H](Cc2ccc(O)cc2)NC(=O)[C@H]([C@@H](C)O)NC1=O` [compound 124] (cyclo(LTY[Dab][Dab][dDab][Dab]W[Dab][Tle]ST[dP]P)), for which the “Hemolysis at 100 μg/ml” value worked out at 0.5%.
Take `CC[C@H](C)[C@@H]1NC(=O)[C@@H]2CCCN2C(=O)[C@H]2CCCN2C(=O)[C@H](CO)NC(=O)[C@H](C)NC(=O)[C@H](C(C)(C)C)NC(=O)[C@H](CCN)NC(=O)[C@H](Cc2c[nH]c3ccccc23)NC(=O)[C@H](CCN)NC(=O)[C@@H](CCN)NC(=O)[C@H](CCCN)NC(=O)[C@H](CCN)NC(=O)[C@H](Cc2ccc(O)cc2)NC(=O)[C@H](C)NC1=O` [compound 125] (cyclo(IAY[Dab][Orn][dDab][Dab]W[Dab][Tle]AS[dP]P)): the “Hemolysis at 100 μg/ml” value was 0%.
As for `CC[C@@H]1NC(=O)[C@H]([C@@H](C)CC)NC(=O)[C@@H]2CCCN2C(=O)[C@H]2CCCN2C(=O)[C@H](CO)NC(=O)[C@H](C)NC(=O)[C@H](C(C)(C)C)NC(=O)[C@H](CCN)NC(=O)[C@H](Cc2c[nH]c3ccccc23)NC(=O)[C@H](CCN)NC(=O)[C@@H](CCN)NC(=O)[C@H](CCCN)NC(=O)[C@H](CCN)NC(=O)[C@H](Cc2ccc(O)cc2)NC1=O` [compound 126] (cyclo(I[Abu]Y[Dab][Orn][dDab][Dab]W[Dab][Tle]AS[dP]P)), the figure is 0.5%.
The value for `CC(C)C[C@@H]1NC(=O)[C@@H]2CCCN2C(=O)[C@H]2CCCN2C(=O)[C@H](CO)NC(=O)[C@H](C)NC(=O)[C@H](CC2CCCCC2)NC(=O)[C@H](CCN)NC(=O)[C@H](Cc2c[nH]c3ccccc23)NC(=O)[C@H](CCN)NC(=O)[C@@H](CCN)NC(=O)[C@H](CCCN)NC(=O)[C@H](CCN)NC(=O)[C@H](Cc2ccc(O)cc2)NC(=O)[C@H](C)NC1=O` [compound 127] (cyclo(LAY[Dab][Orn][dDab][Dab]W[Dab][Cha]AS[dP]P)) was 1%.
The value for `CC(C)C[C@@H]1NC(=O)[C@@H]2CCCN2C(=O)[C@H]2CCCN2C(=O)[C@H](CO)NC(=O)[C@H](C)NC(=O)[C@H](CC2CCCCC2)NC(=O)[C@H](CCN)NC(=O)[C@H](Cc2c[nH]c3ccccc23)NC(=O)[C@H](CCN)NC(=O)[C@@H](CCN)NC(=O)[C@H](CCCCN)NC(=O)[C@H](CCN)NC(=O)[C@H](Cc2ccc(O)cc2)NC(=O)[C@H](C)NC1=O` [compound 128] (cyclo(LAY[Dab]K[dDab][Dab]W[Dab][Cha]AS[dP]P)) was 2%.
Regarding `CC(C)C[C@@H]1NC(=O)[C@@H]2CCCN2C(=O)[C@H]2CCCN2C(=O)[C@H](CO)NC(=O)[C@H](C)NC(=O)[C@H](C2CCCCC2)NC(=O)[C@H](CCN)NC(=O)[C@H](Cc2c[nH]c3ccccc23)NC(=O)[C@H](CCN)NC(=O)[C@@H](CCN)NC(=O)[C@H](CCCN)NC(=O)[C@H](CCN)NC(=O)[C@H](Cc2ccc(O)cc2)NC(=O)[C@H](C)NC1=O` [compound 129] (cyclo(LAY[Dab][Orn][dDab][Dab]W[Dab][Chg]AS[dP]P)), the “Hemolysis at 100 μg/ml” value is 1%.
The value for `CC(C)C[C@@H]1NC(=O)[C@@H]2CCCN2C(=O)[C@H]2CCCN2C(=O)[C@H](CO)NC(=O)[C@H](CO)NC(=O)[C@H](C(C)(C)C)NC(=O)[C@H](CCN)NC(=O)[C@H](Cc2c[nH]c3ccccc23)NC(=O)[C@H](CCN)NC(=O)[C@@H](CCN)NC(=O)[C@H](CCCN)NC(=O)[C@H](CCN)NC(=O)[C@H](Cc2ccc(O)cc2)NC(=O)[C@H](C)NC1=O` [compound 130] (cyclo(LAY[Dab][Orn][dDab][Dab]W[Dab][Tle]SS[dP]P)) was 0.2%; that for `CC(C)C[C@@H]1NC(=O)[C@@H]2CCCN2C(=O)[C@H]2CCCN2C(=O)[C@H]([C@@H](C)O)NC(=O)[C@H](CO)NC(=O)[C@H](C(C)(C)C)NC(=O)[C@H](CCN)NC(=O)[C@H](Cc2c[nH]c3ccccc23)NC(=O)[C@H](CCN)NC(=O)[C@@H](CCN)NC(=O)[C@H](CCCN)NC(=O)[C@H](CCN)NC(=O)[C@H](Cc2ccc(O)cc2)NC(=O)[C@H](C)NC1=O` [compound 131] (cyclo(LAY[Dab][Orn][dDab][Dab]W[Dab][Tle]ST[dP]P)) was 0.1%; that for `CCC[C@@H]1NC(=O)[C@@H]2CCCN2C(=O)[C@H]2CCCN2C(=O)[C@H]([C@@H](C)O)NC(=O)[C@H](CO)NC(=O)[C@H](C2CCCCC2)NC(=O)[C@H](CCN)NC(=O)[C@H](Cc2c[nH]c3ccccc23)NC(=O)[C@H](CCN)NC(=O)[C@@H](CCN)NC(=O)[C@H](CCN)NC(=O)[C@H](CCN)NC(=O)[C@H](Cc2ccc(O)cc2)NC(=O)[C@H](C)NC1=O` [compound 132] (cyclo([Nva]AY[Dab][Dab][dDab][Dab]W[Dab][Chg]ST[dP]P)) was 1.5%.
With `CC[C@H](C)[C@@H]1NC(=O)[C@@H]2CCCN2C(=O)[C@H]2CCCN2C(=O)[C@H]([C@@H](C)O)NC(=O)[C@H]([C@@H](C)O)NC(=O)[C@H](C(C)(C)C)NC(=O)[C@H](CCN)NC(=O)[C@H](Cc2c[nH]c3ccccc23)NC(=O)[C@H](CCN)NC(=O)[C@@H](CCN)NC(=O)[C@H](CCN)NC(=O)[C@H](CCN)NC(=O)[C@H](Cc2ccc(O)cc2)NC(=O)[C@H](C)NC1=O` [compound 133] (cyclo(IAY[Dab][Dab][dDab][Dab]W[Dab][Tle]TT[dP]P)), the “Hemolysis at 100 μg/ml” value is 1%.
Regarding `CCC[C@@H]1NC(=O)[C@@H]2CCCN2C(=O)[C@H]2CCCN2C(=O)[C@H](CO)NC(=O)[C@H](C)NC(=O)[C@H](C2CCCCC2)NC(=O)[C@H](CCN)NC(=O)[C@H](Cc2c[nH]c3ccccc23)NC(=O)[C@H](CCN)NC(=O)[C@@H](CCN)NC(=O)[C@H](CCCN)NC(=O)[C@H](CCN)NC(=O)[C@H](CC2CCCCC2)NC(=O)[C@H](CO)NC1=O` [compound 134] (cyclo([Nva]S[Cha][Dab][Orn][dDab][Dab]W[Dab][Chg]AS[dP]P)), the “Hemolysis at 100 μg/ml” value was 8%.
Regarding `CC(C)C[C@@H]1NC(=O)[C@@H]2CCCN2C(=O)[C@H]2CCCN2C(=O)[C@H](CO)NC(=O)[C@H](C)NC(=O)[C@H](C(C)(C)C)NC(=O)[C@H](CCN)NC(=O)[C@H](Cc2c[nH]c3ccccc23)NC(=O)[C@H](CCN)NC(=O)[C@@H](CCN)NC(=O)[C@H](CCCN)NC(=O)[C@H](CCN)NC(=O)[C@H](CC2CCCCC2)NC(=O)[C@H](CO)NC1=O` [compound 135] (cyclo(LS[Cha][Dab][Orn][dDab][Dab]W[Dab][Tle]AS[dP]P)), the “Hemolysis at 100 μg/ml” value worked out at 5%.
As for `CC[C@H](C)[C@@H]1NC(=O)[C@@H]2CCCN2C(=O)[C@H]2CCCN2C(=O)[C@H](CO)NC(=O)[C@H](C)NC(=O)[C@H](C2CCCCC2)NC(=O)[C@H](CCN)NC(=O)[C@H](Cc2c[nH]c3ccccc23)NC(=O)[C@H](CCN)NC(=O)[C@@H](CCN)NC(=O)[C@H](CCCN)NC(=O)[C@H](CCN)NC(=O)[C@H](C(C)(C)C)NC(=O)[C@H](CO)NC1=O` [compound 136] (cyclo(IS[Tle][Dab][Orn][dDab][Dab]W[Dab][Chg]AS[dP]P)), the figure is 5%; as for `CC(C)C[C@@H]1NC(=O)[C@@H]2CCCN2C(=O)[C@H]2CCCN2C(=O)[C@H](CO)NC(=O)[C@H](C)NC(=O)[C@H](C2CCCCC2)NC(=O)[C@H](CCN)NC(=O)[C@H](Cc2c[nH]c3ccccc23)NC(=O)[C@H](CCN)NC(=O)[C@@H](CCN)NC(=O)[C@H](CCCN)NC(=O)[C@H](CCN)NC(=O)[C@H](C(C)(C)C)NC(=O)[C@H](CO)NC1=O` [compound 137] (cyclo(LS[Tle][Dab][Orn][dDab][Dab]W[Dab][Chg]AS[dP]P)), 4%.
Take `CCC[C@@H]1NC(=O)[C@@H]2CCCN2C(=O)[C@H]2CCCN2C(=O)[C@H](CO)NC(=O)[C@H](C)NC(=O)[C@H](C2CCCCC2)NC(=O)[C@H](CCN)NC(=O)[C@H](Cc2c[nH]c3ccccc23)NC(=O)[C@H](CCN)NC(=O)[C@@H](CCN)NC(=O)[C@H](CCCN)NC(=O)[C@H](CCN)NC(=O)[C@H](C(C)(C)C)NC(=O)[C@H](CO)NC1=O` [compound 138] (cyclo([Nva]S[Tle][Dab][Orn][dDab][Dab]W[Dab][Chg]AS[dP]P)): the “Hemolysis at 100 μg/ml” value is 1%.
Regarding `CCC[C@@H]1NC(=O)[C@@H]2CCCN2C(=O)[C@H]2CCCN2C(=O)[C@H](CO)NC(=O)[C@H](C)NC(=O)[C@H](CC2CCCCC2)NC(=O)[C@H](CCN)NC(=O)[C@H](Cc2c[nH]c3ccccc23)NC(=O)[C@H](CCN)NC(=O)[C@@H](CCN)NC(=O)[C@H](CCCCN)NC(=O)[C@H](CCN)NC(=O)[C@H](C(C)(C)C)NC(=O)[C@H](CO)NC1=O` [compound 139] (cyclo([Nva]S[Tle][Dab]K[dDab][Dab]W[Dab][Cha]AS[dP]P)), the “Hemolysis at 100 μg/ml” value is 5%.
In the case of `CC(C)C[C@@H]1NC(=O)[C@@H]2CCCN2C(=O)[C@H]2CCCN2C(=O)[C@H](CO)NC(=O)[C@H](C)NC(=O)[C@H](C(C)C)NC(=O)[C@H](CCN)NC(=O)[C@H](Cc2c[nH]c3ccccc23)NC(=O)[C@H](CCN)NC(=O)[C@@H](CCN)NC(=O)[C@H](CCCN)NC(=O)[C@H](CCN)NC(=O)[C@H](CC2CCCCC2)NC(=O)[C@H](CO)NC1=O` [compound 140] (cyclo(LS[Cha][Dab][Orn][dDab][Dab]W[Dab]VAS[dP]P)), the “Hemolysis at 100 μg/ml” value is on record as 2%.
The value for `CCC[C@@H]1NC(=O)[C@@H]2CCCN2C(=O)[C@H]2CCCN2C(=O)[C@H](CO)NC(=O)[C@H](C)NC(=O)[C@H](CC2CCCCC2)NC(=O)[C@H](CCN)NC(=O)[C@H](Cc2c[nH]c3ccccc23)NC(=O)[C@H](CCN)NC(=O)[C@@H](CCN)NC(=O)[C@H](CCCN)NC(=O)[C@H](CCN)NC(=O)[C@H](C(C)(C)C)NC(=O)[C@H](CO)NC1=O` [compound 141] (cyclo([Nva]S[Tle][Dab][Orn][dDab][Dab]W[Dab][Cha]AS[dP]P)) was 8%.
